“And” between values parts separate entries of the source, which are not always exact repeats. Equal entries are not always repeated. Toxic doses and inconclusive results are not listed. The calls were made as follows: active = survival T/C of 150% or more; inactive = T/C below 125% in these data.
Test system: P388 leukemia ip, CD2F1 mice, survival T/C
Assay: NCI In Vivo Anticancer Drug Screen. Data for tumor model P388 Leukemia (intraperitoneal) in CD2F1 (CDF1) mice
Settings: endpoint: median survival time, higher = longer survival
Procedure, shortened: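 Mice carrying the transplanted tumor received test compound or vehicle. Survival was recorded in each group, and the value is the treated-group measurement divided by that of the vehicle-treated control group.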

[1] = dose: 50.0 mg/kg/injection, schedule: Q01DX005 (ip), vehicle: saline with Tween-80
[2] = dose: 100.0 mg/kg/injection, schedule: Q01DX005 (ip), vehicle: saline with Tween-80
[3] = dose: 200.0 mg/kg/injection, schedule: Q01DX005 (ip), vehicle: saline with Tween-80
[4] = dose: 60.0 mg/kg/injection, schedule: Q01DX005 (ip), vehicle: saline
[5] = dose: 120.0 mg/kg/injection, schedule: Q01DX005 (ip), vehicle: saline
[6] = dose: 12.5 mg/kg/injection, schedule: Q01DX005 (ip), vehicle: saline with Tween-80
[7] = dose: 25.0 mg/kg/injection, schedule: Q01DX005 (ip), vehicle: saline with Tween-80
[8] = dose: 60.0 mg/kg/injection, schedule: Q01DX005 (ip), vehicle: Klucel (hydroxypropylcellulose) (HPC)
[9] = dose: 120.0 mg/kg/injection, schedule: Q01DX005 (ip), vehicle: Klucel (hydroxypropylcellulose) (HPC)
[10] = dose: 240.0 mg/kg/injection, schedule: Q01DX005 (ip), vehicle: Klucel (hydroxypropylcellulose) (HPC)
[11] = dose: 60.0 mg/kg/injection, schedule: Q01DX005 (ip), vehicle: saline with Tween-80
[12] = dose: 120.0 mg/kg/injection, schedule: Q01DX005 (ip), vehicle: saline with Tween-80
[13] = dose: 240.0 mg/kg/injection, schedule: Q01DX005 (ip), vehicle: saline with Tween-80
[14] = dose: 100.0 mg/kg/injection, schedule: Q01DX001 (ip), vehicle: saline with Tween-80

Measured: T/C

C=CC(=O)C1OC2OC(C)(C)OC2C2OC(C)(C)OC12 (configuration not stated)
inactive: [1] 93 % of control | [2] 97 % of control | [3] 98 % of control

CC(C)C1OCN2CCCCC12 (configuration not stated)
inactive: dose: 50.0 mg/kg/injection, schedule: Q01DX005 (ip), vehicle: saline 105 % of control | dose: 100.0 mg/kg/injection, schedule: Q01DX005 (ip), vehicle: saline 108 % of control | dose: 200.0 mg/kg/injection, schedule: Q01DX005 (ip), vehicle: saline 116 % of control

CCN(CC)CCNc1ccccc1
inactive: [4] 99 % of control | [5] 99 % of control

COC1OC(CO)C(O)C2OCCOCCOC3C(OC)OC(CO)C(O)C3OCCOCCOC12 (configuration not stated)
inactive: [4] 103 % of control | [5] 101 % of control | dose: 240.0 mg/kg/injection, schedule: Q01DX005 (ip), vehicle: saline 97 % of control

Cc1oc(N)c(C#N)c1C
inactive: dose: 100.0 mg/kg/injection, schedule: Q01DX009 (ip), vehicle: saline sonified 110 % of control | dose: 200.0 mg/kg/injection, schedule: Q01DX009 (ip), vehicle: saline sonified 115 % of control | dose: 400.0 mg/kg/injection, schedule: Q01DX009 (ip), vehicle: saline sonified 120 % of control

C[C@]12CC[C@H]3[C@@H](CC[C@H]4N(CCCl)CCC[C@]34C)[C@@H]1CC[C@@H]2O
inactive: dose: 25.0 mg/kg/injection, schedule: Q01DX001 (ip), vehicle: saline 108 % of control

CC1C(c2ccccc2)OC(N2CCOCC2)C(C)(C)CN1C (configuration not stated)
inactive: [1] 108 % of control and 93 % of control | [2] 98 % of control and 101 % of control and 116 % of control | [3] 101 % of control and 119 % of control and 121 % of control | dose: 400.0 mg/kg/injection, schedule: Q01DX005 (ip), vehicle: saline with Tween-80 101 % of control

CCN1C=C/C(=C/c2cc3scc(-c4ccccc4)[n+]3c3ccccc23)c2ccccc21
inactive: dose: 0.32 mg/kg/injection, schedule: Q04DX003 (ip), vehicle: saline sonified 109 % of control

Cc1ccc(NC(=O)Nc2nccs2)cc1
inactive: dose: 12.5 mg/kg/injection, schedule: Q01DX009 (ip), vehicle: distilled water + Tween-80 101 % of control | dose: 25.0 mg/kg/injection, schedule: Q01DX009 (ip), vehicle: distilled water + Tween-80 99 % of control | dose: 50.0 mg/kg/injection, schedule: Q01DX009 (ip), vehicle: distilled water + Tween-80 90 % of control | dose: 100.0 mg/kg/injection, schedule: Q01DX009 (ip), vehicle: distilled water + Tween-80 99 % of control | dose: 200.0 mg/kg/injection, schedule: Q01DX009 (ip), vehicle: distilled water + Tween-80 105 % of control

C[Si]1(C)O[Si](C)(C)N(N)P(=S)(Oc2ccccc2)N1N
inactive: [6] 101 % of control | [7] 108 % of control | [1] 104 % of control and 111 % of control

O=C(NC1C=Nc2ccc(Cl)cc2NC1=O)c1ccc2ccccc2c1 (configuration not stated)
inactive: [8] 90 % of control | [9] 91 % of control | [10] 92 % of control

CC(=O)O/C(C)=C1\CCn2c1nc1ccccc1c2=O
inactive: [11] 104 % of control | [12] 107 % of control | [13] 101 % of control

CC(C)(C(=S)[S-])[P+](c1ccccc1)(c1ccccc1)c1ccccc1
inactive: [8] 96 % of control | [9] 92 % of control | [10] 88 % of control

O=C(CBr)c1cc2c(cc1I)OCO2
inactive: dose: 6.25 mg/kg/injection, schedule: Q01DX001 (ip), vehicle: saline with Tween-80 104 % of control | dose: 12.5 mg/kg/injection, schedule: Q01DX001 (ip), vehicle: saline with Tween-80 105 % of control | dose: 25.0 mg/kg/injection, schedule: Q01DX001 (ip), vehicle: saline with Tween-80 99 % of control and 101 % of control | [14] 100 % of control

NC1CONC1=O (configuration not stated)
inactive: dose: 100.0 mg/kg/injection, schedule: Q01DX009 (ip), vehicle: saline with Tween-80 109 % of control | dose: 100.0 mg/kg/injection, schedule: Q04DX003 (ip), vehicle: saline with Tween-80 100 % of control | dose: 200.0 mg/kg/injection, schedule: Q01DX009 (ip), vehicle: saline with Tween-80 100 % of control | dose: 200.0 mg/kg/injection, schedule: Q04DX003 (ip), vehicle: saline with Tween-80 109 % of control | dose: 400.0 mg/kg/injection, schedule: Q01DX009 (ip), vehicle: saline with Tween-80 100 % of control | dose: 400.0 mg/kg/injection, schedule: Q04DX003 (ip), vehicle: saline with Tween-80 109 % of control

N=C(N)n1c(N)nc2ccccc2c1=O
inactive: dose: 12.0 mg/kg/injection, schedule: Q01DX005 (ip), vehicle: Klucel (hydroxypropylcellulose) (HPC) 108 % of control | [6] 100 % of control | dose: 25.0 mg/kg/injection, schedule: Q01DX005 (ip), vehicle: Klucel (hydroxypropylcellulose) (HPC) 101 % of control | [7] 104 % of control | dose: 50.0 mg/kg/injection, schedule: Q01DX005 (ip), vehicle: Klucel (hydroxypropylcellulose) (HPC) 121 % of control | [1] 97 % of control

COC(=O)c1c(-c2cc(OC)c(OC)cc2[N+](=O)[O-])c(C=O)n(C)c1C
inactive: [14] 100 % of control | dose: 200.0 mg/kg/injection, schedule: Q01DX001 (ip), vehicle: saline with Tween-80 99 % of control | dose: 400.0 mg/kg/injection, schedule: Q01DX001 (ip), vehicle: saline with Tween-80 91 % of control

CCC1(CC)C(=O)N(C)P(=O)(Oc2ccccc2)N(C)C1=O
inactive: dose: 100.0 mg/kg/injection, schedule: Q04DX002 (ip), vehicle: saline 100 % of control | dose: 200.0 mg/kg/injection, schedule: Q04DX002 (ip), vehicle: saline 103 % of control | dose: 400.0 mg/kg/injection, schedule: Q04DX002 (ip), vehicle: saline 101 % of control

CC(C)(C)c1ccc(C(=O)NCSCC(NC(=O)CCC(N)C(=O)O)C(=O)NCC(=O)O)cc1 (configuration not stated)
inactive: [11] 98 % of control | [12] 104 % of control | [13] 86 % of control

O=C1CCC(O)=C1C1=NCCCC1
inactive: dose: 100.0 mg/kg/injection, schedule: Q04DX002 (ip), vehicle: saline with Tween-80 94 % of control | dose: 200.0 mg/kg/injection, schedule: Q04DX002 (ip), vehicle: saline with Tween-80 108 % of control | dose: 400.0 mg/kg/injection, schedule: Q04DX002 (ip), vehicle: saline with Tween-80 101 % of control

O=C(CC(c1cccnc1)C(C(=O)c1ccc(Cl)cc1)C(CC(=O)c1ccc(Cl)cc1)c1cccnc1)c1ccc(Cl)cc1 (configuration not stated)
inactive: [1] 90 % of control | [2] 90 % of control | [3] 92 % of control

CCC1OC(=O)CC(O)C(C)C(OC2OC(C)C(O)C(N(C)C)C2O)C(CC=O)CC(C)C(=O)/C=C/C2(C)OC2C1C (configuration not stated)
inactive: dose: 9.38 mg/kg/injection, schedule: Q01DX009 (ip), vehicle: Klucel (hydroxypropylcellulose) (HPC) 110 % of control | dose: 9.4 mg/kg/injection, schedule: Q01DX009 (ip), vehicle: Klucel (hydroxypropylcellulose) (HPC) 95 % of control | dose: 18.75 mg/kg/injection, schedule: Q01DX009 (ip), vehicle: Klucel (hydroxypropylcellulose) (HPC) 101 % of control and 119 % of control | dose: 37.5 mg/kg/injection, schedule: Q01DX009 (ip), vehicle: Klucel (hydroxypropylcellulose) (HPC) 103 % of control | dose: 75.0 mg/kg/injection, schedule: Q01DX009 (ip), vehicle: Klucel (hydroxypropylcellulose) (HPC) 101 % of control and 123 % of control | dose: 150.0 mg/kg/injection, schedule: Q01DX009 (ip), vehicle: Klucel (hydroxypropylcellulose) (HPC) 124 % of control

O=C(CCn1[nH]c(=O)c(Cl)c(Cl)c1=O)NNc1ccc([N+](=O)[O-])cc1[N+](=O)[O-]
inactive: [1] 92 % of control | [2] 103 % of control | [3] 92 % of control

Reference: PubChem BioAssay AID330 (DTP/NCI, 2004)
